Results from article PMC10224441, “Structural Manipulations of Marine Natural Products Inspire a New Library of 3-Amino-1,2,4-Triazine PDK Inhibitors Endowed with Antitumor Activity in Pancreatic Ductal Adenocarcinoma” (Marine Drugs, 2023).
Counter-ions that a name gives are not always drawn. Like-named read-outs stand apart in the source and are kept apart here.

Experiments:
PSN-1 spheroids = experiment: 3D spheroid cytotoxicity, acid phosphatase (APH) assay, PSN-1; format: cell-based; settings: Homo sapiens, PSN1, 72 h, acid phosphatase (APH) test, read-out: IC50 (µM) ± S.D. PSN-1 (3D spheroids)
Protocol: Prompted by these encouraging results, we also screened the newly developed 1,2,4-triazine compounds against 3D spheroids of PDAC KRAS wild-type and mutant cells, to further estimate their anticancer potential in a more predictive environment. […] The PDAC cancer spheroids were treated with tested compounds for 72 h, and cell viability was assessed by means of the acid phosphatase (APH) assay (Table 3). The efficacy of gemcitabine as well as of DCA and DAP was assessed under the same experimental conditions.
Spheroid cultures were obtained by seeding 2.5 × 10^3 PSN-1 cancer cells/well in a round-bottom non-treated tissue culture 96-well plate (Greiner Bio-one, Kremsmünster, Austria) in phenol red-free RPMI-1640 medium (Sigma Chemical Co, St. Louis, MO, USA) containing 10% fetal calf serum and supplemented with 20% methylcellulose stock solution.
An APH-modified assay was used for determining cell viability in 3D spheroids, as previously described. Briefly, the pre-seeded spheroids were treated with fresh medium containing the compound to be studied at the appropriate concentration (range 2.5–200 μM). Triplicate cultures were established for each treatment. After 72 h, each well was treated with 100 μL of the assay buffer (0.1 M sodium acetate, 0.1% Triton-X-100, supplemented with ImmunoPure p-nitrophenyl phosphate; Sigma Chemical Co.) and, following 3 h of incubation, 10 μL of 1 M NaOH solution were added. The inhibition of the cell growth induced by the tested compounds was detected by measuring the absorbance of each well at 405 nm, using a Bio-Rad 680 microplate reader. The mean absorbance for each drug dose was expressed as a percentage of the control untreated well absorbance (T/C) and plotted vs. drug concentration. IC50 values, the drug concentrations that reduce the mean absorbance at 405 nm 50% of those in the untreated control wells, were calculated by the four-parameter logistic (4-PL) model. The evaluation was based on means from at least four independent experiments.

recombinant human PDK1 = target: T1, recombinant human PDK1 (Homo sapiens, UniProt Q15118); experiment: PDK1 ADPGlo Kinase Assay; format: biochemical; settings: for IC50: isolated PDK1 isoform, four-parameter logistic model, mean of 3 independent experiments, read-out: IC50 (µM) ± S.D. PDK1
T1 construct: purchased Abcam
T1 sequence (Q15118 29-436): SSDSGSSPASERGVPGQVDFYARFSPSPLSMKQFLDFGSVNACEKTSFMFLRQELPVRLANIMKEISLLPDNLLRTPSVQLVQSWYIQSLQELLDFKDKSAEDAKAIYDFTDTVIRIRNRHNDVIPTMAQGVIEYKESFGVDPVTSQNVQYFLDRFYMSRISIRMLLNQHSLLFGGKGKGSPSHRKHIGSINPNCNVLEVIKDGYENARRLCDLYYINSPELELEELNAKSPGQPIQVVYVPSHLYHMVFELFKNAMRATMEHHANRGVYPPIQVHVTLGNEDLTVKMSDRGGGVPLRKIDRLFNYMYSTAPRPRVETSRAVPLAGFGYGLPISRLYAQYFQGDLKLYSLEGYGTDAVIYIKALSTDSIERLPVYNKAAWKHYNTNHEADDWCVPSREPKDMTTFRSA
Protocol: The ability of the tested compounds to hamper the activity of PDK1-4 isoforms was firstly evaluated by means of a chemioluminescent assay, the ADPGlo™ Kinase Assay kit (Promega Corporation, Madison, WI, USA).
The in vitro inhibitory activity of tested compounds on recombinant human PDK1-4 isoforms (Abcam, Cambridge, MA, USA) was evaluated by using the ADPGlo™ Kinase Assay kit from Promega (Promega Corporation, Madison, WI, USA) following the instructions of the manufacturer, as previously described.

[1] = test system: PSN-1 cells (KRAS-mutant PDAC); experiment: 2D cytotoxicity, MTT assay, PSN-1; format: cell-based; settings: Homo sapiens, read-out: IC50 (µM) ± S.D. PSN-1 (2D)
Protocol: (§1) All newly developed 1,2,4-amino-triazine compounds were screened for their cytotoxic activity against two human PDAC cell lines, namely, a KRAS-wild-type PDAC cell line (BxPC-3 cells) and a KRAS-mutant PDAC cell line (PSN-1 cells). […] The cytotoxicity parameters, expressed in terms of IC50 and obtained after 72 h of drug exposure by MTT assay, are reported in Table 3.
(§2) All tested compounds were dissolved in DMSO just before the experiment, and a calculated amount of drug solution was added to the cell growth medium to a final solvent concentration of 0.5%, which had no detectable effects on cell viability.
(§3) Human pancreatic PSN-1 and BxPC-3 carcinoma cell lines were obtained by American Type Culture Collection (ATCC, Rockville, MD, USA). Cell lines were maintained in the logarithmic phase at 37 °C in a 5% carbon dioxide atmosphere using RPMI-1640 medium (EuroClone) containing 10% fetal calf serum (EuroClone, Milan, Italy), antibiotics (50 units/mL penicillin and 50 μg/mL streptomycin) and 2 mM l-glutamine.
(§4) The growth inhibitory effect on tumor cells was evaluated by means of MTT assay. Briefly, 5 × 10^3 cells/well were seeded in 96-well microplates in a growth medium (100 μL). After 24 h, the medium was removed and replaced with a fresh one containing the compound to be studied at the appropriate concentration. Triplicate cultures were established for each treatment. After 72 h, each well was treated with 10 μL of a 5 mg/mL MTT saline solution, and following 5 h of incubation, 100 μL of a sodium dodecyl sulfate (SDS) solution in HCl 0.01 M was added. After overnight incubation, cell growth inhibition was detected by measuring the absorbance of each well at 570 nm using a Bio-Rad 680 microplate reader. The mean absorbance for each drug dose was expressed as a percentage of the control untreated well absorbance and plotted vs. drug concentration. IC50 values, the drug concentrations that reduce the mean absorbance at 570 nm to 50% of those in the untreated control wells, were calculated by the four-parameter logistic (4-PL) model. The evaluation was based on means from at least four independent experiments.

[2] = test system: BxPC-3 cells (KRAS-wild-type PDAC); experiment: 2D cytotoxicity, MTT assay, BxPC-3; format: cell-based; settings: Homo sapiens, read-out: IC50 (µM) ± S.D. BxPC-3 (2D)
Protocol: as §1, §2, §3, §4

BxPC-3 spheroids = experiment: 3D spheroid cytotoxicity, acid phosphatase (APH) assay, BxPC-3; format: cell-based; settings: Homo sapiens, 72 h, acid phosphatase (APH) test, read-out: IC50 (µM) ± S.D. BxPC-3 (3D spheroids)
recombinant human HSP90 = recombinant human HSP90 (Homo sapiens, UniProt P07900); experiment: HSP90 inhibition assay (Transcreener ADP kit); format: biochemical; settings: isolated HSP90; four-parameter logistic model; mean of 3 independent experiments; read-out: IC50 (µM) ± S.D. HSP90
Protocol: Since the ATP binding pockets in PDKs and HSP90 are similar and taking into consideration that these 1,2,4-triazine derivatives conserved a chemical scaffold resembling that of the well-known Hsp90 inhibitor Ganetespib, the most performant PDK inhibitors 4d, 4f, 4h, 5d, 5f, 5h and 5j were also screened for their ability to target HSP90.
The in vitro inhibitory activity of tested compounds on recombinant human HSP90 was assessed by The Transcreener™ ADP kit (Bellbrook Labs, Madison, WI, USA) according to the manufacturer’s protocol as previously described.

[3] = PSN1, 72 h exposure, MTT test, 2D culture
[4] = BXPC-3, 72 h exposure, MTT test, 2D culture

Structure (SMILES)	melting point [°C]	IC50 (PSN-1 spheroids) [µM]	IC50 (recombinant human PDK1) [µM]	IC50 [1, 3] [µM]	IC50 [2, 4] [µM]	IC50 (BxPC-3 spheroids) [µM]	decrease in potency on PDK1 relative to 5d and 5j (recombinant human PDK1; compared with the other two examined ligands (5d, 5j)) [fold]	IC50 (recombinant human HSP90) [µM]	IC50 ([1]; PSN1, 72 h) [µM]	IC50 ([2]; BXPC-3, 72 h) [µM]
Cn1cc(-c2nnc(N)nc2-c2cn(C)c3ncccc23)c2ccccc21 [4a, 6-(1-Methyl-1H-indol-3-yl)-5-(1-methyl-1H-pyrrolo[2,3-b]pyridin-3-yl)-1,2,4-triazin-3-amine]	268.1	97.5 ± 2.8	0.3 ± 0.1	11.3 ± 2	15.7 ± 2.2	141.3 ± 0.1	–	–	–	–
Cn1cc(-c2nnc(N)nc2-c2cn(C)c3ncc(Br)cc23)c2ccccc21 [4b, 5-(5-Bromo-1-methyl-1H-pyrrolo[2,3-b]pyridin-3-yl)-6-(1-methyl-1H-indol-3-yl)-1,2,4-triazin-3-amine]	260	188 ± 13.8	0.33 ± 0.05	19.5 ± 2.9	23.5 ± 3.2	224 ± 14.8	–	–	–	–
Cn1cc(-c2nnc(N)nc2-c2cn(C)c3ncccc23)c2cc(Br)ccc21 [4c, 6-(5-Bromo-1-methyl-1H-indol-3-yl)-5-(1-methyl-1H-pyrrolo[2,3-b]pyridin-3-yl)-1,2,4-triazin-3-amine]	176.3	55.8 ± 3.5	0.26 ± 0.07	7.8 ± 1.5	9.5 ± 1.7	76.8 ± 5.1	–	–	–	–
Cn1cc(-c2nnc(N)nc2-c2cn(C)c3ncccc23)c2cc(Cl)ccc21 [4e, 6-(5-Chloro-1-methyl-1H-indol-3-yl)-5-(1-methyl-1H-pyrrolo[2,3-b]pyridin-3-yl)-1,2,4-triazin-3-amine]	178	59.6 ± 4.5	0.29 ± 0.06	26.5 ± 4.3	32.3 ± 8.2	160 ± 11.4	6	–	–	–
Cn1cc(-c2nnc(N)nc2-c2cn(C)c3ncccc23)c2cc(F)ccc21 [4g, 6-(5-Fluoro-1-methyl-1H-indol-3-yl)-5-(1-methyl-1H-pyrrolo[2,3-b]pyridin-3-yl)-1,2,4-triazin-3-amine]	267.4	65.5 ± 6.8	0.19 ± 0.04	4.5 ± 1.3	6.5 ± 1.1	71.5 ± 5.2	–	–	–	–
COc1ccc2c(c1)c(-c1nnc(N)nc1-c1cn(C)c3ncccc13)cn2C [4i, 6-(5-methoxy-1-methyl-1H-indol-3-yl)-5-(1-methyl-1H-pyrrolo[2,3-b]pyridin-3-yl)-1,2,4-triazin-3-amine]	217	140 ± 7.5	0.33 ± 0.1	26.5 ± 4	31.2 ± 5.5	189 ± 10.9	–	–	–	–
COc1ccc2c(c1)c(-c1nnc(N)nc1-c1cn(C)c3ncc(Br)cc13)cn2C [4j, 5-(5-Bromo-1-methyl-1H-pyrrolo[2,3-b]pyridin-3-yl)-6-(5-methoxy-1-methyl-1H-indol-3-yl)-1,2,4-triazin-3-amine]	197.6	103 ± 8.7	0.18 ± 0.06	27.8 ± 3.8	30.5 ± 3.4	160 ± 10.5	–	–	–	–
Cn1cc(-c2nc(N)nnc2-c2cn(C)c3ncccc23)c2ccccc21 [5a, 5-(1-Methyl-1H-indol-3-yl)-6-(1-methyl-1H-pyrrolo[2,3-b]pyridin-3-yl)-1,2,4-triazin-3-amine]	235.5	78.8 ± 8.5	0.32 ± 0.1	22.2 ± 2.7	27.2 ± 3.7	170 ± 9.4	–	–	–	–
Cn1cc(-c2nc(N)nnc2-c2cn(C)c3ncc(Br)cc23)c2ccccc21 [5b, 6-(5-Bromo-1-methyl-1H-pyrrolo[2,3-b]pyridin-3-yl)-5-(1-methyl-1H-indol-3-yl)-1,2,4-triazin-3-ylamine]	–	73.6 ± 6.8	0.21 ± 0.07	5.2 ± 0.9	9.4 ± 1.3	68.5 ± 2.5	–	–	–	–
Cn1cc(-c2nc(N)nnc2-c2cn(C)c3ncccc23)c2cc(Br)ccc21 [5c, 5-(5-bromo-1-methyl-1H-indol-3-yl)-6-(1-methyl-1H-pyrrolo[2,3-b]pyridin-3-yl)-1,2,4-triazin-3-amine]	304.5	78.4 ± 5.8	0.27 ± 0.08	9.2 ± 1.9	13.7 ± 2.9	156 ± 11.7	–	–	–	–
Cn1cc(-c2nc(N)nnc2-c2cn(C)c3ncccc23)c2cc(Cl)ccc21 [5e, 5-(5-Chloro-1-methyl-1H-indol-3-yl)-6-(1-methyl-1H-pyrrolo[2,3-b]pyridin-3-yl)-1,2,4-triazin-3-amine]	310.3	198 ± 12.4	0.32 ± 0.1	14.2 ± 3.1	16.5 ± 3.8	200 ± 16.3	–	–	–	–
Cn1cc(-c2nc(N)nnc2-c2cn(C)c3ncccc23)c2cc(F)ccc21 [5g, 5-(5-Fluoro-1-methyl-1H-indol-3-yl)-6-(1-methyl-1H-pyrrolo[2,3-b]pyridin-3-yl)-1,2,4-triazin-3-amine]	281.4	130 ± 11.8	0.29 ± 0.1	15.2 ± 4.6	19.8 ± 3.2	79.7 ± 11.4	–	–	–	–
COc1ccc2c(c1)c(-c1nc(N)nnc1-c1cn(C)c3ncccc13)cn2C [5i, 5-(5-Methoxy-1-methyl-1H-indol-3-yl)-6-(1-methyl-1H-pyrrolo[2,3-b]pyridin-3-yl)-1,2,4-triazin-3-amine]	288.2	112 ± 9.1	0.31 ± 0.07	14.9 ± 3.2	0.31 ± 0.07	153 ± 10.3	–	–	–	–
O=C(c1ccccc1)C(Cl)Cl [DAP, 2,2-dichloroacetophenone, reference compound]	–	87.4 ± 8.9	212 ± 48	–	–	78.2 ± 6.2	–	698 ± 83	10.2 ± 1.6	16.5 ± 0.9
O=C(O)C(Cl)Cl [DCA, Dichloroacetate, reference compound]	–	29800 ± 357	–	–	–	–	–	–	> 1000	> 1000
Nc1ccn([C@@H]2O[C@H](CO)[C@@H](O)C2(F)F)c(=O)n1 [Gemcitabine, gemcitabine hydrochloride, reference compound]	–	103 ± 6.3	–	0.1 ± 0.04	0.02 ± 0.003	160 ± 5.6	–	–	–	–
